Data set [1] in a line: Density by dry densitometer. Format: physicochemical. Particulars: dry densitometer AccuPyc II 1340-10CC. The procedure:
(§1) An acetone solution or a chloroform solution of each of the compounds according to Test Examples 1 to 15 was prepared, and the average refractive index to light of 589 nm at room temperature of 25±1° C. was measured by an Abbe refractometer (manufactured by ERMA INC., ER-1), and plotted against the volume fraction of each compound to prepare a calibration curve. Note that as the density of each compound, a value determined by a dry densitometer (AccuPyc II 1340-10CC (manufactured by Shimadzu Corporation)) was used. The calibration curve was extrapolated, and the refractive index when the volume fraction of each compound became 1 was used as the refractive index of each compound. The measurement results of the refractive index and density (g/cm^3) of each of the compounds according to Test Examples 1 to 15 are shown in Table 1 below.

A short description of data set [2]: Refractive index of compound, Abbe refractometer, calibration curve extrapolated. Particulars: for Refractive index: average refractive index to light of 589 nm, 25±1° C., acetone or chloroform solution, extrapolated to volume fraction 1; for Refractive index compared with compound (11-1) according to Test Example 15: comparison in words. Format: physicochemical. The procedure:
Note that the refractive index can be measured by a critical angle method or a spectroscopic ellipsometry method. For example, in the critical angle method, measurement can be performed using an Abbe refractometer ER-1 manufactured by ERMA INC (measurement wavelengths are measured in visible light areas using 486 nm, 589 nm, 656 nm, and the like).
as §1

A short description of data set [3]: Solubility in organic solvent, visual dissolution. The data set is classed as physicochemical. The conditions noted are these: ultrasonic stirring. The procedure:
20 mg of each of the compounds according to Test Examples 1 to 15 was weighed into a vial bottle, acetone was added to make a total amount of […], and then, the mixture was stirred with ultrasonic waves for 30 seconds. In the case where there was an undissolved product by visual recognition, a small amount of acetone was added thereto, and the mixture was stirred for another 30 seconds. The task described above was repeated, and the solubility was calculated from the total amount of solvents when all were dissolved.

The conditions of data set [4]: commercial product, Osaka Gas Chemical Co., Ltd.; cited from earlier work.

Like-named read-outs stand apart in the source and are kept apart here.

With `C=CC(=O)OCC(Cn1c2ccc3ccccc3c2c2c3ccccc3ccc21)OC(=O)C=C` (centres unmarked) [(10-4)], the Density in data set [1] amounted to 1.22 g/mL. For the same compound, in data set [2], the Refractive index is on record as 1.72 and the “Refractive index compared with compound (11-1) according to Test Example 15” value (shortened to “Refractive index compared with compound”) is “higher than the refractive index of the compound (11-1)”.

Consider `C=CC(=O)OCCCCOc1cc(OCCCCOC(=O)C=C)cc(-n2c3ccc4ccccc4c3c3c4ccccc4ccc32)c1` [(10-11)], for which the “Refractive index compared with compound” value in data set [2] is reported as “higher than the refractive index of the compound (11-1)”.

The compound `C=CC(=O)OCCn1c2ccc3ccccc3c2c2c3ccccc3ccc21` [(6-3)] yielded a Density in data set [1] of 1.22 g/mL. Besides, the “Refractive index compared with compound” value in data set [2] is reported as “higher than the refractive index of the compound (11-1)”.

For `C=CC(=O)Oc1cc(Cn2c3ccc4ccccc4c3c3c4ccccc4ccc32)cc(OC(=O)C=C)c1` [(10-1)], the Density in data set [1] came to 1.3 g/mL. In data set [3], the “Solubility Acetone” value worked out at 5 wt % and the “Solubility Chloroform” value was found to be 17 wt %. Besides, the “Refractive index compared with compound” value in data set [2] was “higher than the refractive index of the compound (11-1)”.

On to “bisphenoxyethanol fluorene diacrylate [EA-0200]”, for which, in data set [4], the Refractive index was 1.62.

With `C=CC(=O)OCCOc1cc(OCCOC(=O)C=C)cc(-n2c3ccccc3c3c4ccccc4ccc32)c1` [(10-12)], the Density in data set [1] was found to be 1.26 g/mL. Also, in data set [2], the Refractive index is reported as 1.69 and the “Refractive index compared with compound” value is “higher than the refractive index of the compound (11-1)”.

In data set [1], `C=CC(=O)Oc1cc(CCn2c3ccc4ccccc4c3c3c4ccccc4ccc32)cc(OC(=O)C=C)c1` [(10-2)] returned a Density of 1.29 g/mL. For the same compound, the “Solubility Acetone” value in data set [3] is on record as 20 wt %. Also, in data set [2], the Refractive index is given as 1.73 and the “Refractive index compared with compound” value is listed as “higher than the refractive index of the compound (11-1)”.

In data set [1], `C=C(C)C(=O)OCC(Cn1c2ccc3ccccc3c2c2c3ccccc3ccc21)OC(=O)C(=C)C` (centres unmarked) [(10-5)] had a Density of 1.26 g/mL. The “Solubility Chloroform” value in data set [3] is 19 wt %. Further, in data set [2], the Refractive index is given as 1.72 and the “Refractive index compared with compound” value is reported as “higher than the refractive index of the compound (11-1)”.

Consider `C=CC(=O)OCCOCC(Cn1c2ccc3ccccc3c2c2c3ccccc3ccc21)OCCOC(=O)C=C` (centres unmarked) [(10-6)], for which the “Refractive index compared with compound” value in data set [2] is “higher than the refractive index of the compound (11-1)”.

Take `C=C(C)C(=O)OCCOCC(Cn1c2ccc3ccccc3c2c2c3ccccc3ccc21)OCCOC(=O)C(=C)C` (centres unmarked) [(10-7)]: in data set [2], the “Refractive index compared with compound” value was “higher than the refractive index of the compound (11-1)”.

For `C=CC(=O)Oc1cc(OC(=O)C=C)cc(-n2c3ccc4ccccc4c3c3c4ccccc4ccc32)c1` [(6-8)], the Density in data set [1] turned out to be 1.31 g/mL. Besides, in data set [3], the “Solubility Acetone” value is reported as 3 wt %. Further, the “Refractive index compared with compound” value in data set [2] is reported as “higher than the refractive index of the compound (11-1)”.

Take `C=CC(=O)OCCOc1cc(OCCOC(=O)C=C)cc(-n2c3ccc4ccccc4c3c3c4ccccc4ccc32)c1` [(10-10)]: the Density in data set [1] turned out to be 1.27 g/mL. Also, in data set [2], the “Refractive index compared with compound” value is “higher than the refractive index of the compound (11-1)”.

Take `C=CC(=O)OCCn1c2ccccc2c2c3ccccc3ccc21` [(10-8)]: the Density in data set [1] came to 1.3 g/mL. For the same compound, the “Solubility Acetone” value in data set [3] is 18 wt %. In data set [2], the Refractive index is on record as 1.74 and the “Refractive index compared with compound” value is listed as “higher than the refractive index of the compound (11-1)”.

As for `C=CC(=O)OCCOc1cc(Cn2c3ccc4ccccc4c3c3c4ccccc4ccc32)cc(OCCOC(=O)C=C)c1` [(10-3)], the Density in data set [1] turned out to be 1.29 g/mL. Further, in data set [2], the Refractive index is recorded as 1.71 and the “Refractive index compared with compound” value is “higher than the refractive index of the compound (11-1)”.

Consider `C=CC(=O)OCCn1c2ccccc2c2ccc3ccccc3c21` [(10-9)], for which the Density in data set [1] was determined as 1.31 g/mL. Moreover, in data set [3], the “Solubility Acetone” value is reported as 5 wt % and the “Solubility Chloroform” value is on record as 13 wt %. Besides, in data set [2], the Refractive index is 1.74 and the “Refractive index compared with compound” value is “higher than the refractive index of the compound (11-1)”.

In the case of `C=CC(=O)OCCn1c2ccccc2c2ccccc21` [(11-1), acrylic acid 2-(9H-carbazol-9-yl) ethyl, reference compound], the Density in data set [1] was found to be 1.21 g/mL. The “Solubility Acetone” value in data set [3] is listed as 44 wt %. In addition, the Refractive index in data set [2] is recorded as 1.68.

The values above are taken from US20220289678A1, “COMPOUND, POLYMER, AND ORGANIC MATERIAL, AND OPTICAL APPARATUS, OPTICAL PART, AND IMAGE DISPLAY APPARATUS USING THE ORGANIC MATERIAL” (Sony Group Corporation, priority 2019, published 2022).
